According to patent publication US20230212533A1 (THE REGENTS OF THE UNIVERSITY OF MICHIGAN, priority 2020, published 2023):
“And” between values parts separate entries of the source, which are not always exact repeats. Identical values can stand only once. Like-named read-outs stand apart in the source and are kept apart here.

Tests used:
[1] = tested on: L-6-hydroxynicotine oxidase (LHNO, 3NG7), wild type, SEQ ID NO:13; details: cited from earlier work; for kcat/Km: wild-type LHNO
[2] = molecular target: T1, Pseudomonas putida S16 nicotine oxidoreductase NicA2, wild type, SEQ ID NO:131 (Pseudomonas putida, UniProt F8G0P2)
Target sequence in this assay (F8G0P2 2-482): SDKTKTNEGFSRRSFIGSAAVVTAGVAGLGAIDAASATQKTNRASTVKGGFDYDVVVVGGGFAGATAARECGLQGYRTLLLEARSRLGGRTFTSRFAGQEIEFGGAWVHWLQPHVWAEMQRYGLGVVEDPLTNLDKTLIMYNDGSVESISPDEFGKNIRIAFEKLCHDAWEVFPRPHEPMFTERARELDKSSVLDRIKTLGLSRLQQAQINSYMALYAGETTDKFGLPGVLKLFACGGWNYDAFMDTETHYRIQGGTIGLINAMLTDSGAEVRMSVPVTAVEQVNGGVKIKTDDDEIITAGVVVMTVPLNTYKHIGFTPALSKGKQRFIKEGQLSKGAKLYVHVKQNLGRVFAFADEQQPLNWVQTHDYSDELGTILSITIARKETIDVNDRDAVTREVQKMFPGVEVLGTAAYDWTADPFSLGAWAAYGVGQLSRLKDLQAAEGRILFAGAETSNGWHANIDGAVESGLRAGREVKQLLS
Experimental: All stopped-flow experiments were performed in 40 mM HEPES-KOH, pH 7.5, 100 mM NaCl, 10% glycerol at 4° C. NicA2 and CycN solutions were made anaerobic in glass tonometers by repeated cycles with vacuum and anaerobic argon^42. When needed, NicA2's FAD was reduced in the anaerobic tonometer by titrating with a dithionite solution housed in a gas-tight Hamilton syringe. The dithionite solution was slowly added up to the point where NicA2's flavin reached the fully-reduced hydroquinone state, and the redox status of the flavin was spectrophotometrically monitored during the titration using a Shimadzu UV-1900 UV-VIS spectrophotometer. […] Buffer containing O2 at specific concentrations was prepared by sparging different O2/N2 gas ratios through buffer in a gas-tight syringe for at least 15 minutes at room temperature. The various O2/N2 gas ratios were prepared from O2 and N2 gas cylinders using a Maxtec MaxBlend 2 gas mixer, and the dissolved O2 concentration in the buffer solution was calculated using a Henry's law constant for O2 of 770 atm M^−1.
Stopped-flow experiments were conducted using a TgK Scientific SF-61 DX2 KinetAsyst stopped-flow instrument that had been previously equilibrated with a glucose/glucose oxidase solution to make the internal components of the system anaerobic. […] The reaction of NicA2-Flred with O2 was monitored using the instrument's multi-wavelength CCD detector (1.6 ms data interval time). […] Kinetic traces were fit to sums of exponentials using KaleidaGraph (Synergy Software) to determine observed rate constants.
We next monitored the reaction of NicA2-Flred with O2 in the oxidative half reaction via stopped-flow experiments.

Escherichia coli = assay: toxicity to E. coli; type: cell-based
Experimental: (§1) Directed evolution is a powerful means to improve enzyme function. […] The experiments are performed using the fast-growing model organism, Escherichia coli, which permits evaluation of many variants of NicA2 for performance-enhancing mutations. […] Identification of these variants is expected to reveal the molecular determinants of wild-type NicA2's low O2-dependent activity.
as §1, with “were” for “are”, “permitted” for “permits”

[3] = molecular target: T1, Pseudomonas putida S16 nicotine oxidoreductase NicA2, wild type, SEQ ID NO:131; details: anaerobic, pH 7.5, 4° C., 450 nm
Target sequence in this assay (F8G0P2 2-482): as above
Experimental: All stopped-flow experiments were performed in 40 mM HEPES-KOH, pH 7.5, 100 mM NaCl, 10% glycerol at 4° C. NicA2 and CycN solutions were made anaerobic in glass tonometers by repeated cycles with vacuum and anaerobic argon^42. When needed, NicA2's FAD was reduced in the anaerobic tonometer by titrating with a dithionite solution housed in a gas-tight Hamilton syringe. The dithionite solution was slowly added up to the point where NicA2's flavin reached the fully-reduced hydroquinone state, and the redox status of the flavin was spectrophotometrically monitored during the titration using a Shimadzu UV-1900 UV-VIS spectrophotometer. […] The various O2/N2 gas ratios were prepared from O2 and N2 gas cylinders using a Maxtec MaxBlend 2 gas mixer, and the dissolved O2 concentration in the buffer solution was calculated using a Henry's law constant for O2 of 770 atm M^−1.
Stopped-flow experiments were conducted using a TgK Scientific SF-61 DX2 KinetAsyst stopped-flow instrument that had been previously equilibrated with a glucose/glucose oxidase solution to make the internal components of the system anaerobic. […] The reaction of NicA2-Flred with O2 was monitored using the instrument's multi-wavelength CCD detector (1.6 ms data interval time). […]

[4] = molecular target: T1, Pseudomonas putida S16 nicotine oxidoreductase NicA2, wild type, SEQ ID NO:131; details: estimated from reported doubling time of one hour
Target sequence in this assay (F8G0P2 39-482): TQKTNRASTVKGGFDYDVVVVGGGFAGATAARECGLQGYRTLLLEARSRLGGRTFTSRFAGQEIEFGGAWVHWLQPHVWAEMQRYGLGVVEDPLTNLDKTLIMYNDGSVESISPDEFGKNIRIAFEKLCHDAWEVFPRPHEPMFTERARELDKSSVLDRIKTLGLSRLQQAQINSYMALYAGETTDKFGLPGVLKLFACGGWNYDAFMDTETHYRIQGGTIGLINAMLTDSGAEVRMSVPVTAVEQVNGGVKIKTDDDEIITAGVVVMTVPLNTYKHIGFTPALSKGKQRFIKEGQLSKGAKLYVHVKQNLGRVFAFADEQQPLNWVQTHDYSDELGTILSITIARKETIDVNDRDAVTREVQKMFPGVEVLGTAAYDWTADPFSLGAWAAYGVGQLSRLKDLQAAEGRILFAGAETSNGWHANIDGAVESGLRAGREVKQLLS

[5] = molecular target: T1, Pseudomonas putida S16 nicotine oxidoreductase NicA2, wild type, SEQ ID NO:131; details: WT P. putida S16; about 5 mM nicotine degraded by about 3.5 nM NicA2 in 16 hours
Target sequence in this assay (F8G0P2 39-482): as above
Experimental: Both wild-type and ΔcycN strains were grown overnight in LB. The next day, these cultures were diluted to OD 0.1 in 5 mL M9 salts+0.4% glycerol and allowed to grow for 2 hours. […] From then on, the cultures were sampled at 2, 4, 8, 24, and 49 hours. 200 μL of culture was extracted at each time point and spun down at 16,000 g for 10 minutes. The supernatant was isolated, and 100 μL supernatant was mixed with 300 μL methanol to prepare HPLC samples. The cell pellet was resuspended in 100 μL Bacterial Protein Extraction Reagent (B-PER; Thermo Fisher) and allowed to incubate at room temperature for 15 minutes to complete lysis. After this time had elapsed, 25 μL of 5× reducing gel loading buffer was added to each sample.
Samples for HPLC were further clarified by spinning at 16,000 g for 30 minutes. 100 μL of each clarified sample was placed into autosampler vials. […] Samples and standards were within the linear range of detection, and the absorbance peaks were integrated for quantification.
Samples for western blot analysis were boiled for 5 minutes. […] Protein bands were quantified using LI-COR Odyssey software, and the NicA2 standard curve was used to determine the linear range of detection and concentration of NicA2 at each time point from the experiment.

[6] = tested on: Pseudomonas putida S16 nicotine oxidoreductase NicA2, wild type, SEQ ID NO:131; details: in vitro, cited from earlier work
[7] = cited from earlier work

SMILES: CN1CCC[C@H]1c1ccc(O)nc1 [L-6-hydroxynicotine]
- kcat ([1]; O2 as the electron acceptor for flavin oxidation, substrate L-6-hydroxynicotine): 78 s⁻¹
- kcat/Km [1]: 600000 M⁻¹ s⁻¹

SMILES: CN1CCC[C@H]1c1cccnc1 [L-nicotine]
- kcat/Km [1]: 42 M⁻¹ s⁻¹

SMILES: O=O [O2, molecular oxygen]
- kobs of NicA2-Flred oxidation by O2 ([2]; at ~250 μM O2, calculated from bimolecular rate constant): 0.007 s⁻¹
- bimolecular rate constant for flavin oxidation by O2 (kox^O2) ([2]; pH 7.5, 4° C., 450 nm): 27 ± 1 M⁻¹ s⁻¹ and 27 M⁻¹ s⁻¹
- kcat ([1]; reaction with oxygen): 78 s⁻¹

SMILES: CN1CCC[C@H]1c1cccnc1 [nicotine]
- concentration toxic to E. coli (Escherichia coli; about this level or higher): about 1 mg/mL
- kobs (fastest phase, reduction of NicA2's FAD by nicotine) [3]: about 180 s^−1
- in vivo turnover rate (kcat) [4]: 1 s⁻¹
- in vivo turnover rate [5]: about 24 s^−1
- kcat for degrading nicotine relative to NicA2 ([1]; oxygen dependent reaction): 5 fold
- turnover number (O2-dependent nicotine turnover) ([6]; O2 as electron acceptor): 0.007 s⁻¹
- kcat (conversion of nicotine to pseudooxynicotine) ([6]; oxygen as electron acceptor): 0.007 s⁻¹

SMILES: CNCCCC(=O)c1cccnc1 [pseudooxynicotine]
- concentration up to which non-toxic to E. coli (Escherichia coli; e. coli culture): at least 5 mg/mL
- addictiveness in animal models [7]: non-addictive
- toxicity in animal models [7]: non-toxic
